Data set [1] is described as follows: Percutaneous absorption test of 14C-incadronate aqueous solution. Format: in vivo, rat. The conditions noted are these: in 24 hours after the administration. The source says: The rat abdominal hair was shaved and a round cell (made of acryl, 20 mm in diameter) was fixed on the skin with a medical adhesive. […] During the test, the rat was fixed dorsally under urethane anesthesia. Bone tissue specimens were burnt in a tissue combustion equipment and the radioactivity was counted by a scintillation counter.

A short description of data set [2]: Solubility properties. The format is physicochemical.
The subject of data set [3] is dihydrotachysterol-induced calcification (calciphylaxis). The following applies: cited from earlier work.
The conditions of data set [4]: as compared to control; cited from earlier work.

Where two headings read alike, the source gives them in different places.

Turning to `O=P([O-])(O)C(NC1CCCCCC1)P(=O)([O-])O.[Na+].[Na+]` [incadronate, disodium incadronate], in data set [1], the “concentration in the bone tissues” value is recorded as “very high concentration in the bone tissues”.

In the case of `O=P(O)(O)C(O)(Cc1cnc2ccccn12)P(=O)(O)O` [minodronic acid, 1-hydroxy-2-(imidazo[1,2-a]pyridin-3-yl)ethylidenebisphosphonic acid], the “solubility in an alkaline solvent” value in data set [2] (alkaline solvent) is listed as “soluble in an alkaline solvent”. Also, the “solubility in an organic solvent” value in data set [2] (organic solvent) was “insoluble even in an organic solvent”. For the same compound, in data set [2] (water), the solubility in water entry is “practically insoluble in water”.

In the case of `CC(O)(P(=O)(O)O)P(=O)(O)O` [etidronate], the skin calcium level is recorded as 2.026% in data set [3] (composition of etidronate and penetrating carrier containing decyl methyl sulfoxide); 0.067% in data set [3] (etidronate alone dissolved in the penetrating carrier vehicle). Moreover, the “enhancement of penetration effect by decyl methyl sulfoxide” value in data set [4] is recorded as “about 6 fold”.

The values are drawn from patent US7820197B2, “Percutaneous preparations” (Astellas Pharma Inc., priority 2002, dated 2010).
